Earlier results, collected in US8518435B2 (priority 2011, dated 2013).

Experiments:
[1] = tested on: bacteria, viruses, parasites, and yeast/mold/fungus; conditions: in vitro (in a test tube)
influenza virus = conditions: mice infected with lethal doses of influenza virus, vs saline controls
rhinovirus IB = conditions: in vitro; J. Nat. Prod. (1994)

In the case of `COC(=O)C1=CO[C@@H](C)[C@@H](C=O)[C@@H]1CC(=O)[O-].COC(=O)C1=CO[C@@H](C)[C@@H](C=O)[C@@H]1CC(=O)[O-].[Ca+2]` [calcium elenolate], the “effectiveness in eliminating organisms” value [1] is given as “effective in eliminating a very broad range of organisms”.

For `CC1(C)[C@@H](O[C@H]2O[C@H](C(=O)O)[C@@H](O)[C@H](O)[C@H]2O[C@@H]2O[C@H](C(=O)O)[C@@H](O)[C@H](O)[C@H]2O)CC[C@]2(C)[C@H]3C(=O)C=C4[C@@H]5C[C@@](C)(C(=O)O)CC[C@]5(C)CC[C@@]4(C)[C@]3(C)CC[C@@H]12` [glycyrrhizin], the lung damage (influenza virus) is given as “less lung damage” and the protection from death (influenza virus) is given as “protected from death due to the virus”.

For beta-sesquiphellandrone, the IC50 (rhinovirus IB) is listed as 0.44 µM.
